Experimental data published in patent publication US8759504B2, “Cholinergic/serotoninergic receptor and uses thereof” (AbbVie Inc., priority 2007, dated 2014).
Read-outs that look alike come from different tables or passages of the source.

Assays:
[1] = molecular target: T1, Chimera 2 (Homo sapiens, UniProt P36544, M226I/T225V); test: Membrane potential imaging (FLIPR-FMP) in HEK-293 cells; assay type: cell-based; parameters: expressed in transfected cells
[2] = molecular target: Chimera 1 (Homo sapiens, UniProt P36544, M226I/T225V); test: as above; assay type: cell-based; parameters: expressed in transfected cells
[3] = molecular target: T1, Chimera 2; test: Two electrode voltage clamp in Xenopus oocytes (POETs), agonist and modulator responses; assay type: cell-based; parameters: expressed in transfected cells; host or cells: Xenopus laevis oocytes (transient, A2); settings: Xenopus oocytes, data not shown
[4] = molecular target: T1, Chimera 2; test: [3H]A-585539 radioligand binding, HEK-293 membranes/homogenates; parameters: expressed in transfected cells; settings: increasing concentrations
[5] = molecular target: T2, rat brain α7* nicotinic acetylcholine receptors (Rattus norvegicus, UniProt Q05941); test: [3H]A-585539 radioligand binding, rat brain homogenates
T2 construct: expressed both as a native (rat cortex) or α7/5-HT3 chimeric receptor; from tissue; host or cells: rat brain / rat cortex homogenates

[6] = HEK293, read-out: Maximum efficacy (mean±S.E.M.), membrane potential imaging, HEK-293 cells
[7] = read-out: Agonist potency, membrane potential imaging: EC50 (95% C.I.), HEK-293 cells
[8] = HEK293, read-out: Agonist maximum efficacy, control (no modulator)
[9] = HEK293, read-out: Agonist maximum efficacy, in the presence of 10 μM genistein
[10] = HEK293, read-out: Agonist maximum efficacy, in the presence of 1 mM 5-HI
[11] = read-out: Agonist concentration-response EC50, control (no modulator)
[12] = read-out: Agonist concentration-response EC50, in the presence of 10 μM genistein
[13] = read-out: Agonist concentration-response EC50, in the presence of 1 mM 5-HI

T1 sequence (P36544 with tags, fused parts or gaps T225V/M226I): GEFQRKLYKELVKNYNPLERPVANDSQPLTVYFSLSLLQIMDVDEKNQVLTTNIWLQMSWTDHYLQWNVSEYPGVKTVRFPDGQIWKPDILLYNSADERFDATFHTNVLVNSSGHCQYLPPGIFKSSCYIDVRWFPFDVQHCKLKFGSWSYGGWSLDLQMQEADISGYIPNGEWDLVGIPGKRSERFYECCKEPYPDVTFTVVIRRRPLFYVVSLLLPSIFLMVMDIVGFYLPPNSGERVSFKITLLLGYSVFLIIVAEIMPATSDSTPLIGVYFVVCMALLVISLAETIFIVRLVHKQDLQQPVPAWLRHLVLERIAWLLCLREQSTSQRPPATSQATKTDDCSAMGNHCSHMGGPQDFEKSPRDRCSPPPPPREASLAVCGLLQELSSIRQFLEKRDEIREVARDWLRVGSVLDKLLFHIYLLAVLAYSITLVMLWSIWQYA
Sequence of Chimera 1 (P36544 with tags, fused parts or gaps T225V/M226I): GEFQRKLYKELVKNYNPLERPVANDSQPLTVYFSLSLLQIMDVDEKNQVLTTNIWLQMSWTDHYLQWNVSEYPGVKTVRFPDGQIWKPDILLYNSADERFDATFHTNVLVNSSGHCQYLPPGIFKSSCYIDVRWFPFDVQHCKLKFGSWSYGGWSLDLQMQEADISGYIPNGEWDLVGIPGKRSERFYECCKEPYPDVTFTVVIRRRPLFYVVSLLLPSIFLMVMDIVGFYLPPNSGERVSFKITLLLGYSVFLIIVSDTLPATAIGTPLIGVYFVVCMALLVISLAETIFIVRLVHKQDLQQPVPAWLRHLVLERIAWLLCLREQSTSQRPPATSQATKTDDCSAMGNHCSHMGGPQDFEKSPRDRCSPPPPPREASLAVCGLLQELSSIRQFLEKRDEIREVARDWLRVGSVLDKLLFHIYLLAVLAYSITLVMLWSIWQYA
T2 sequence (Q05941 23-502): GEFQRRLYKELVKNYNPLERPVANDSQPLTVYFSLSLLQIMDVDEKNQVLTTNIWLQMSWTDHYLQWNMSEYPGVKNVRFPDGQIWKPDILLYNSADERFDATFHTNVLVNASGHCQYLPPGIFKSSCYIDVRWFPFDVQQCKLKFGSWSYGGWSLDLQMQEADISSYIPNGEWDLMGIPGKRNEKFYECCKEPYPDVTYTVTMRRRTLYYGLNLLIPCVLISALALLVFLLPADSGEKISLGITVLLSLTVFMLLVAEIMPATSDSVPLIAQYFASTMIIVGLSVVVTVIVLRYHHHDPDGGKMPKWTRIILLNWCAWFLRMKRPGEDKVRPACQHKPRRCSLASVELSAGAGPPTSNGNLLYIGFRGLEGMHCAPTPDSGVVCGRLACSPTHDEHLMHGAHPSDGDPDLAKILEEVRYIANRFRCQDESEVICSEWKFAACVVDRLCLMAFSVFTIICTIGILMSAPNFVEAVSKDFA

With `c1ccc(-c2nnc(N3CCN4CCC3CC4)o2)cc1` [NS6784, 2-(1,4-diazabicyclo[3.2.2]nonan-4-yl)-5-phenyl-1,3,4-oxadiazole] the Emax [1, 6] was 107 ± 5%, the “FLIPR-FMP pEC50 ± SEM” value ([1]; HEK-293 cells) was 7.1 ± 0.04 and the EC50 [1, 7] was 72 nM. For the same compound, the Emax [2, 6] was 100%, the “FLIPR-FMP pEC50 ± SEM” value ([2]; HEK-293 cells) was 6.8 ± 0.10 and the EC50 [2, 7] was 133 nM.
`O=C(N[C@H]1CN2CCC1CC2)c1ccc(Cl)cc1` [PNU-282987] was tested, and the Emax [1, 8] was 100 ± 0.01%, the Emax [1, 9] was 207 ± 21% and the Emax [1, 10] was 156 ± 4%. The Emax [1, 6] was 99 ± 2%, the “FLIPR-FMP pEC50 ± SEM” value ([1]; HEK-293 cells) was 7.0 ± 0.04 and the EC50 [1, 11] was 75 nM. It also gave an EC50 [1, 12] of 72 nM, an EC50 [1, 13] of 37 nM and an EC50 [1, 7] of 53 nM. The Emax [2, 8] was 98 ± 2%, the Emax [2, 9] was 87 ± 3% and the Emax [2, 10] was 157 ± 13%. For the same compound, the Emax [2, 6] was 107 ± 9%, the “FLIPR-FMP pEC50 ± SEM” value ([2]; HEK-293 cells) was 6.8 ± 0.07 and the EC50 [2, 11] was 343 nM. The EC50 [2, 12] was 527 nM, the EC50 [2, 13] was 145 nM and the EC50 [2, 7] was 204 nM.
In the case of `Br.CO[C@H]1CC=C2CCN3CCC4=C(CC(=O)OC4)[C@]23C1` [dihydro-β-erythroidine hydrobromide], the “Effect on the inward current evoked by NS-1738 alone” value [3] is reported as “inhibited the inward current observed during the NS-1738 exposure”.
In the case of `CCN1C[C@]2(COC(=O)c3ccccc3N3C(=O)C[C@H](C)C3=O)CC[C@H](OC)[C@@]34[C@@H]5C[C@H]6[C@H](OC)[C@@H]5[C@](O)(C[C@@H]6OC)[C@@](O)([C@@H](OC)[C@H]23)[C@@H]14` [methyllycaconitine], the “Competition / displacement of [3H]A-585539 binding” value [4] is reported as “competed with the binding” and the “Competition / displacement of [3H]A-585539 binding” value [5] is reported as “competed with the binding”.
